Assay [1] has as its target T1, HLA-DR1 (Homo sapiens, UniProt P01903+P01911, A100R/D57E/F55L/F60I/F76Y/I96L/L162R/M171V/P40L/Q125E/R42F/V115G/Y59C).
T1 construct: made in house; host or cells: Sf9 insect cells
The assay is described as follows: Competition against 125I-labeled HA 307-319 for binding to "empty" HLA-DR1.

In assay [2] the target is T1, HLA-DR1. Nature of the assay: Resistance to SDS-induced chain dissociation of HLA-DR1 (SDS-PAGE). Type of assay: binding.

Ends that are not written are not given here.

Turning to `CSCC[C@H](NC(=O)[C@H](CCCNC(=N)N)NC(=O)[C@H](CCSC)NC(=O)[C@H](CCCCN)NC(=O)[C@H](CO)NC(=O)[C@@H](NC(=O)[C@@H]1CCCN1C(=O)[C@H](CCCCN)NC(=O)[C@@H]1CCCN1C(=O)[C@@H]1CCCN1C(=O)[C@H](CCCCN)NC(=O)[C@@H]1CCCN1C(=O)[C@@H](N)CC(C)C)C(C)C)C(=O)N[C@@H](C)C(=O)N[C@H](C(=O)O)[C@@H](C)O` [Ii 97-111, reference compound], at HLA-DR1 [1], the “able to compete with HA 307-319 for binding to DR1” value is listed as “Neither”. Besides, at HLA-DR1 [2], the “able to confer resistance to SDS-induced α-β chain dissociation of "empty" DR1” value was “Neither”. Regarding “IPADLRIISANGCKVDNS [Na+/K+ ATPase 199-216]”, the affinity at HLA-DR1 [1], expressed as Ki, was 68 ± 9 nM. In the case of “Ii 107-120: Ii peptide named in the text as the highest-affinity competitor; probably the Ii 106-120 entry of Table 2 (MRMATPLLMQALPM)”, the “relative binding affinity to DR1 among competitor peptides” value in the assay with HLA-DR1 [1] (at first approximation, equivalent to control HA peptide) was “highest affinity of all the competitor peptides measured”. Regarding KMRMATPLLMQALPM [Ii 106-120], on HLA-DR1 [1], the Ki – broadly, a measure of affinity in units of concentration, obtained from inhibition or displacement – was < 10 nM. Same read-out and setting: in the case of LPKPPKPVSKMRMATPLLMQALPM [Ii 98-121] it was 33 ± 5 nM; in that of “RVEYHFLSPYVSPKESP [Transf. Recept. 680-696]”, < 10 nM; in that of “SDLSFSKDWSFYL [β2 m 52-64, reference compound]”, > 10000 nM.

On HLA-DR1 [1], VGSDWRFLRGYHQYA [HLA-A2 103-117] showed a Ki of 49 ± 3 nM.

Source of the values: US5827516A, “Immunomodulatory peptides” (President and Fellows of Harvard College, priority 1995, dated 1998).
